≈ marks a conversion by molar mass, not a printed value. Entries after “also recorded” stand apart in the source; their conditions may differ.
Assays:
erythrocytes = conditions: cited from earlier work
[1] = i.p., 2.5% carboxymethylcellulose in water; cited from earlier work
[2] = room temperature; cited from earlier work
[3] = cited from earlier work
[4] = Stability of busulfan formulations on storage / after mixing; format: physicochemical
Protocol: Stability of the Various Busulfan Formulations. The physical and chemical stabilities of the various parenteral busulfan formulations were examined as follows: First, busulfan was dissolved at a concentration of 25 mg/ml in DMA only ("stock solution") and incubated at 4° C. at 22° C. and at 40°C. Starting at time zero, then weekly up to 10 weeks, samples were withdrawn and analyzed for busulfan concentration by HPLC. Second, the busulfan-DMA was diluted with PEG-400/water to give final concentrations of DMA:PEG-400:water of 20:40:40 and final busulfan concentrations of 2-10 mg/ml. These formulations were subsequently analyzed by HPLC immediately after mixing and then hourly for eight hours. Third, busulfan formulation mixtures were diluted in normal saline to a final busulfan concentration of 1 mg/ml. The preparations were then introduced into infusion bags (Viaflex™ Baxter Healthcare Corp Deerfield, Id.), and allowed to run through a parenteral infusion set at a rate of 1 ml/min. Samples were collected at 0, 0.5, 1.0, 2.0, 5.0, 7.0, 9.0, and 12 hours and analyzed for busulfan by HPLC as above.
The drug was first dissolved in DMA at 25 mg/ml. Different aliquots were stored at 4° C., at 22° C., and at 40°C. From time 0 and then weekly, samples were analyzed for busulfan drug degradation over at least 15 weeks of observation. […] The stability of busulfan in the complete 20% DMA/40% PEG-400/40% water was also studied for the following different busulfan concentrations, 2, 3, 5, 8, and 10 mg/ml. At 2 and 3 mg/ml the busulfan was stable for the duration of the 8 hour observation period in this solvent system.

[5] = system: human KBM-3 myeloid leukemia cells; assay: In vitro cytotoxicity, MTT assay; format: cell-based; conditions: for cells killed: 24 hours, 37° C.
Protocol: In vitro Cytotoxicity of Busulfan in the DMA/PEG-400 Vehicle. Human leukemic KBM-3 cells (Anderson, et al., 1992), were incubated for 24 hours in the complete vehicle without the addition of busulfan at different concentrations (0.5%, 1.0%, 2.0%, 3.0% and […], v/v), to assay the cytotoxic properties of the 20% DMA/40% PEG-400 aqueous vehicle by itself (negative controls), or with the addition of busulfan. In parallel, cells in Iscove's modified Dulbecco medium (GIBCO, Grand Island, New York, N.Y.), supplemented with 10% fetal bovine serum, were incubated with busulfan (at 25 μg/ml and 50 μg/ml), in the 20% DMA/40% PEG-400 aqueous solvent (the resulting vehicle concentrations were 1.0 and 2.0% (v/v), respectively), or with busulfan dissolved in a small volume (≤1%, v/v) of acetone (positive controls). After 24 hours, 25 μl of a 5 mg/ml solution of MTT (3, [4,5-dimethylthiazol-2-yl]2,5-diphenyltetrazoliumbromide, obtained from Sigma Chemicals, St. Louis, MO), was added to each sample, and after an additional 2 hours of incubation at 37° C., 100 μl of extraction buffer was added (extraction buffer: 20% (w/v) SDS dissolved to saturation at 37° C. in a solution of equal parts of dimethylformamide and deionized water; the pH was adjusted to 4.7 by the use of acetic acid and 1 N HCL as described (Hansen et al., 1989). After over night incubation at 37° C., the optical densities at 570 nm were measured using a Titer-Tech 96-well multi-scanner, using the extraction buffer as the blank. The cytotoxicity was determined as the difference between the samples as above and the reactivity of cells incubated in PBS alone. All determinations were performed in triplicate.
To study the cytotoxic activity of busulfan in the 20% DMA/40% PEG-400 aqueous vehicle, human KBM-3 myeloid leukemia cells (Andersson et al., 1992), were exposed to either the complete vehicle at various concentrations without or with the addition of busulfan for 24 hours at 37° C. The cytotoxicity was assayed with the MTT assay (Hansen et al., 1989). […]

[6] = Plasma pharmacokinetics of busulfan, oral tablet, oral solution and i.v. solution; format: in vivo, Sprague-Dawley rats; conditions: in words
Text: The present example provides the development of an efficient technique for extraction of busulfan from blood plasma, adaptation of the HPLC assay for quantitation of busulfan in the plasma extract, and studies of the in vivo plasma pharmacokinetics of busulfan when administered orally as the commercially available tablet, as an oral solution in a vehicle of 40% PEG-400, and as an intravenous injection when dissolved in a vehicle of 40% PEG-400. A comparison of the plasma pharmacokinetics of busulfan in the rat is also given after i.v. busulfan administration. The drug was dissolved at 3 mg/ml in either acetone or DMSO or the complete 20% DMA/40% PEG-400 aqueous solvent.
Rat plasma (0.2 ml) was spiked with varying concentrations of busulfan (from a stock solution in DMA), to give final drug concentrations of 0.15-3.0 μg/ml. The internal standard, 20 μl, (CGA-112913; in methanol, 20 μg/ml) was then added to the drug-plasma mixtures. After vortexing for 10 seconds, the drug and internal standard were precipitated from the plasma proteins with 0.2 ml acetonitrile with subsequent vortexing for 30 seconds. The busulfan and internal standard were then extracted using 2 ml of ethyl acetate and vortexed for 1 minute. The solutions were centrifuged for 10 minutes and 1 ml of the ethyl acetate layer was evaporated to dryness under compressed air. The busulfan and internal standard were then dissolved in 0.5 ml of distilled water and derivatized with 0.2 ml of an 8.2% (w/v) solution of diethyldithiocarbamic acid sodium and vortexed for 30 seconds.
The busulfan derivative, DDCB (Diethyldithiocarbamoyl butane), was subjected to solid phase extraction with Sep-Pak LC™ cartridges (Millipore Corporation, Bedford, Ill.) under vacuum. The cartridges were conditioned with three 1-ml washes of methanol followed by two 1-ml washes with distilled water. The derivatized solutions were then passed through the cartridges and the cartridges washed twice with 1 ml 50% methanol in distilled water. The DDCB and the internal standard were eluted from the columns using 250-μ1 methanol twice, followed by two washes of 0.5-ml of ethyl acetate. […]

[7] = i.p., cited from earlier work
human erythrocytes = assay: Hemolysis studies; format: cell-based; conditions: in words
Protocol: The procedure of Reed and Yalkowsky was employed for the studies of hemolytic potential of the different preparations, and the LD50 values of the various formulations were evaluated (Reed et al., 1985).
Variable amounts of whole blood (citrated) were added to 0.05 ml of the drug formulations in ratios of 1:1 (v/v), 1:3, 1:5, 1:7, and 1:9. The mixtures were vortexed for 10 seconds and then incubated for 2 minutes at 25°C. Five ml normal saline was then added to this blend to quench further lysis of the erythrocytes by rendering the preparation nearly isotonic. The mixture was again vortexed for 10 seconds and centrifuged for 5 minutes at 3,000 r.p.m. (Beckman Model TJ-6 Centrifuge, Beckman Instruments Inc., Palo Alto, Calif.). The supernatant was carefully aspirated and discarded. The packed erythrocytes were washed once more at room temperature with one volume of normal saline. After centrifugation, the supernatant was again carefully aspirated and discarded. […] The absorbance of the supernatant was subsequently measured at 540 nm after a 1:3 dilution with distilled water° Normal saline was assayed in parallel as a standard. The fraction of […] was defined as the absorbance reading of the respective drug formulation divided by that of the saline standards (Reed et al., 1985).
The hemolytic potential of the various busulfan formulations was evaluated. […]

[8] = Solubility of busulfan in various solvent systems (HPLC); format: physicochemical; conditions: acetone, organic solvent or mixture
[9] = Equilibrium solubility studies; format: physicochemical; conditions: anhydrous dma, organic solvent or mixture
Protocol: An excess amount of busulfan was added to each solution and the mixtures were placed on a rotating mixer (Tube Rotator™, Scientific Equipment Products, Baltimore, Md.). […] For the DMA/PEG-400 aqueous vehicle, a slightly modified approach had to be taken, since DMA readily dissolved the ACRO LC 25 filter. After dissolving the busulfan in DMA, the busulfan-DMA solution was mixed with 40% PEG-400/40% water and filtered through a 0.45 μm silver filter (Nuclepore Corp., Pleasanton, Calif.) fitted to a syringe assembly. After derivatization with DDTC, the busulfan concentration was determined by HPLC as above.

cyclodextrins
hemolysis LD50 (erythrocytes; Yoshida et al., 1988): about 2 % (w/v)

CS(=O)(=O)OCCCCOS(C)(=O)=O [busulfan, 1,4-bis-(methanesulfonoxyl)butane]
local toxicity of intraperitoneal injection [1]: causes significant local tissue damage | solubility in water [2]: 0.025 mg/mL (≈ 0.101 mM) | liver toxicity ([3]; oral, high dose combinations): veno-occlusive disease (VOD) of the liver, leading to fatal liver failure | neurological and gastrointestinal side effects ([3]; oral, high dose): grand mal seizures and severe nausea and vomiting | myelosuppression ([3]; prolonged administration): occasionally severe, sometimes even irreversible myelosuppression | hemolysis by busulfan itself (erythrocytes; Bishop et al., 1986): shown to cause hemolysis | onset of degradation ([4]; 25 mg/ml in DMA, 40° C.): around 3 weeks | degradation at 15 weeks ([4]; 25 mg/ml in DMA, 40° C., 15 weeks, 151200 min): about 50% | stability in DMSO ([4]; DMSO, in words): rapidly degrades busulfan | cytotoxic activity in vehicle ([5]; 20% DMA/40% PEG-400 aqueous vehicle vs acetone, in words): retained its cytotoxic activity | cells killed ([5]; busulfan 25 μg/ml in 20% DMA/40% PEG-400 aqueous vehicle): about 50% | cells killed ([5]; busulfan 50 μg/ml in 20% DMA/40% PEG-400 aqueous vehicle): approximately 80% | absorption, non-fasting vs fasting animals ([6]; oral): non-fasting animals seem to absorb more drug than fasting subjects | bioavailability / plasma concentrations vs oral preparations ([6]; parenteral vs oral): higher after parenteral administration than after oral dosing | AUC, parenteral vs standard tablet in non-fasting animals ([6]; ratio): about five times higher | peak plasma concentration, parenteral vs standard tablet in non-fasting animals ([6]; ratio): approximately ten times higher | platelet dysfunction ([7]; in polyethyleneglycol, 60 mg/kg): induce platelet dysfunction | toxicity of intraperitoneal administration [7]: very toxic and causes significant local tissue damage | contribution of busulfan to hemolysis (human erythrocytes): did not add significantly to the overall hemolytic effect; also recorded: insignificant | solubility [8]: 25 mg/mL (≈ 101 mM) | solubility [9]: 75 mg/mL (≈ 304 mM)
